According to paper PMC7059793, “Novel Chemical Scaffolds to Inhibit the Neutral Amino Acid Transporter B^0AT1 (SLC6A19), a Potential Target to Treat Metabolic Diseases” (Frontiers in Pharmacology, 2020):

Columns and labels:
Type in all cases: cell-based
B^0AT1 = molecular target: T1, B^0AT1 (Homo sapiens, UniProt Q695T7); assay: FLIPR assay with inhibitors alone in the absence of substrate (substrate test) in CHO-BC cells; conditions: 30 μM, baseline 100 RFU
T1 construct: expressed in transfected cells
T1 sequence (Q695T7 1-634): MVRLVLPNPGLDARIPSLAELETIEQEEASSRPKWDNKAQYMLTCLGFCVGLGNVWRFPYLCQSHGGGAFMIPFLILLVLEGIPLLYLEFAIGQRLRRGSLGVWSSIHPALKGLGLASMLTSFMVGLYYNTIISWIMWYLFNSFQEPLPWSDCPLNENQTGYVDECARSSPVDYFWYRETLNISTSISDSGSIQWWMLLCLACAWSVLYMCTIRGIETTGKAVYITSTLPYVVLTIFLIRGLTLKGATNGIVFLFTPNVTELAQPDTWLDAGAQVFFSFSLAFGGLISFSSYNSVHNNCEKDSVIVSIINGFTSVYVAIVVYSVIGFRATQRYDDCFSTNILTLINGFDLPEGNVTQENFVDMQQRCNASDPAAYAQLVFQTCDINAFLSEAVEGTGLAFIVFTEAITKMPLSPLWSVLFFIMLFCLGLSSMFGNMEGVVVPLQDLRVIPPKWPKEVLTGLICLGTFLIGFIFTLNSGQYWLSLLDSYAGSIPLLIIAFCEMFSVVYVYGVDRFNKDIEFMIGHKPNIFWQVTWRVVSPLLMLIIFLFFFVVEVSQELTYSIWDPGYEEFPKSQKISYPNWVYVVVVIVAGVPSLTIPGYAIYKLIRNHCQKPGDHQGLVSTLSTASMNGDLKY
T1 sequence (Q9HBJ8 15-222 partner): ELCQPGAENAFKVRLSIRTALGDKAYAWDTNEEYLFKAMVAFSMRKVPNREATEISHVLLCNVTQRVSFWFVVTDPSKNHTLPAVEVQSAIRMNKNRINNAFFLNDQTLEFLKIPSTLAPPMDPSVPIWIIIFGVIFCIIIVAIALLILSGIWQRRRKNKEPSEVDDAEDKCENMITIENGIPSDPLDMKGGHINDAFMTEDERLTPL
Method: Membrane depolarisation induced by amino acid transport was monitored using a FLIPR® kit (Molecular Devices, R8042 BLUE DYE). Before the assay, CHO-BC cells were seeded out at a density of 60,000 cells/well and maintained in a flat transparent bottom 96-well plate (Corning) overnight. After washing three times with Hank’s balanced salt solution (136.6 mM NaCl, 5.4 mM KCl, 0.44 mM KH2PO4, 2.7mM Na2HPO4, 1.26mM CaCl2, 0.5mM MgCl2, 0.4 mM MgSO4, 10mM HEPES, pH 7.5, supplemented with 5 mM glucose, abbreviated HBSS + G), cells in each well were incubated for 30 min at room temperature in 50 µl of HBSS pH 7.5 containing 5 mM glucose and compounds as indicated, together with 50 µl of dye-loading buffer provided with the kit. […] Fluorescence was detected at room temperature using a PerkinElmer multimode Plate Reader, with an excitation wavelength of 530 nm and emission wavelength of 565 nm.
Figure 6 Specificity and efficacy of B^0AT1 inhibitors. […] Although structurally unrelated to the substrates of the transporter, compounds E4, E18, and CB3 are highly specific.

ASCT2 (SLC1A5) = molecular target: T2, ASCT2 (SLC1A5) (Homo sapiens, UniProt Q15758); assay: Na+-dependent [14C]glutamine uptake in 143B cells; conditions: inhibitor at 10 μM and 50 μM, 100 μM [14C]glutamine
T2 construct: endogenous in cells; host or cells: 143B TK- cells (human osteosarcoma)
T2 sequence (Q15758 1-541): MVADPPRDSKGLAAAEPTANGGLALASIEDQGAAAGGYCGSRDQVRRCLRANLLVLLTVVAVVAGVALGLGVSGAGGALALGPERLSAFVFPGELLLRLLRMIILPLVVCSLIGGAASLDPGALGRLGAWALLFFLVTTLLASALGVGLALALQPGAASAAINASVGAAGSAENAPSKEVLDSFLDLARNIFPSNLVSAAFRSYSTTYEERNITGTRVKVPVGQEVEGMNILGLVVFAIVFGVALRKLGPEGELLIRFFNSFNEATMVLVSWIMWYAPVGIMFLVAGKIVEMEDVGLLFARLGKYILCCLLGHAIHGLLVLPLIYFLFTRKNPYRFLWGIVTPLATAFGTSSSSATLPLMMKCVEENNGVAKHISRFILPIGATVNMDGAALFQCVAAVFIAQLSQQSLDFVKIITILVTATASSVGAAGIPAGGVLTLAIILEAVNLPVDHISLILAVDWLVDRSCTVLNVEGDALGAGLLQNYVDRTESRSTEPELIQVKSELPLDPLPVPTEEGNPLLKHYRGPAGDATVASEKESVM
Method: (§1) CHO-BC cells with passage numbers from 3 to 10 were used in radio-labelled uptake assays. Before the assay, the cells were seeded out in 35 mm dishes (Corning) and maintained for 48–72 h until reaching 80–90% confluence. To initiate transport, the culture medium was removed and the cells washed three times with HBSS + G. Subsequently, cells were incubated with HBSS + G, radiolabelled substrates (150 μM L-[U-^14C]leucine or 150 μM L-[U-^14C]isoleucine) and inhibitors as indicated in the figures or table in a 37°C water bath for 6 min. To terminate transport, cells were washed three times with ice-cold HBSS pH 7.5. For measuring sodium-independent uptake, NaCl in Hank’s buffer was replaced by NMDG-Cl. Cells were then harvested by homogenizing with 500 µl of 0.1 M HCl. An aliquot of 400 µl was used for scintillation counting and the remainder for protein quantification. To investigate inhibition of ASCT2, uptake of 100 μM [^14C]glutamine was measured in 143B cells in the absence and presence of inhibitor (at 10 μM and 50 μM). To measure inhibition of LAT1, uptake of [^14C]leucine was measured in HBSS + G in which NaCl was replaced by NMDG-Cl in 143B cells in the absence and presence of inhibitor (at 10 μM and 50 μM).
(§2) To investigate the specificity of the compounds further, we tested them in human 143B osteosarcoma cells, which we have extensively characterised previously and used for pharmacological analysis ([Broer et al., 2018]). Na^+-dependent glutamine transport in 143B cells is largely mediated by ASCT2 (SLC1A5). Na^+-independent transport of leucine, by contrast, is mediated entirely by LAT1.

LAT1 = molecular target: T3, LAT1 (Homo sapiens, UniProt Q01650); assay: Na+-independent [14C]leucine uptake in 143B cells; conditions: inhibitor at 10 μM and 50 μM
T3 construct: endogenous in cells; host or cells: 143B TK- cells (human osteosarcoma)
Method: as §1, §2

T3 sequence (Q01650 whole entry): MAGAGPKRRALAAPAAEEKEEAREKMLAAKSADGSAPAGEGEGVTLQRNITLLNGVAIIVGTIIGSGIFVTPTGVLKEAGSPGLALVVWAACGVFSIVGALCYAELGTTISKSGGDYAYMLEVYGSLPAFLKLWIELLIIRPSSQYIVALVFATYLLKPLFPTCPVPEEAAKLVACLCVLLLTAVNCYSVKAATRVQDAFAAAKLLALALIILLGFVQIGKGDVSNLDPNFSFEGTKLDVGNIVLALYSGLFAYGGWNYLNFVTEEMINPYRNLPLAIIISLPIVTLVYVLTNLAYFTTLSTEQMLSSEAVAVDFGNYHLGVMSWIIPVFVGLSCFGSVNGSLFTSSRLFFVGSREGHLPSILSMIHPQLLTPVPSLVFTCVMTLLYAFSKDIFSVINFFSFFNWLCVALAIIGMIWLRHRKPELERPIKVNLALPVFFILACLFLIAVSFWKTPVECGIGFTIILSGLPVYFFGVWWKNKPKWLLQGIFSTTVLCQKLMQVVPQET
T3 sequence (P08195 102-630 partner): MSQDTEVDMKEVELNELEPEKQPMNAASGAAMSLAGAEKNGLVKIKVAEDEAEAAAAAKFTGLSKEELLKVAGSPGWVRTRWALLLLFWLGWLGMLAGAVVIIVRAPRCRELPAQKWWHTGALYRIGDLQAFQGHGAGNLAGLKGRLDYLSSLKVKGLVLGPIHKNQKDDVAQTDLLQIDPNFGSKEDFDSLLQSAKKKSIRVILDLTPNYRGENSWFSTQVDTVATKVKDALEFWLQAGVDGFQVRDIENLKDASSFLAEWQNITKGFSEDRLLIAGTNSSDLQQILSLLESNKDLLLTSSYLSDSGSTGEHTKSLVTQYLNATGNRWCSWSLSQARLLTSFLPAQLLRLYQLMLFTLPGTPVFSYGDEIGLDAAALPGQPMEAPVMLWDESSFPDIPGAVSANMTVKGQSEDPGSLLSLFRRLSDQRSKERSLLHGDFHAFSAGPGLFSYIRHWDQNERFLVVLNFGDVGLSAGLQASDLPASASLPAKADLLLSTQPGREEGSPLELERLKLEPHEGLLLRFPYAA

Inhibition of Na+-dependent glutamine uptake (ASCT2) (ASCT2 (SLC1A5)) | Inhibition of Na+-independent leucine uptake (LAT1) (LAT1) | Compound | Fluorescence signal when tested alone (no substrate) (B^0AT1)
failed to inhibit | failed to inhibit | Cc1cc(C(=O)Nc2ccc(Cl)cc2C(F)(F)F)no1 [CB3] | did not increase fluorescence above the baseline
failed to inhibit | failed to inhibit | Cc1cc(OCC(=O)NC(C)C)cc(C)c1Cl [Compound E4] | did not increase fluorescence above the baseline
failed to inhibit | failed to inhibit | COc1ccccc1Nc1nc2ccccc2s1 [Compound E18] | did not increase fluorescence above the baseline
